The record followed here is article PMC12707362, “Targeting Aurora Kinases as Essential Cell‐Cycle Regulators to Deliver Multi‐Stage Antimalarials Against Plasmodium Falciparum” (Angewandte Chemie (International Ed. in English), 2025).

The IC50 is the concentration that gives 50% inhibition. The inhibition is the change of the read-out against control, counted positive when it falls. The CC50 is the concentration giving 50% cytotoxicity.

Counter-ions that a name gives are not always drawn. Like-named read-outs stand apart in the source and are kept apart here. Bounds are passed on as bounds.

The test system of data set [1] is P. falciparum drug-sensitive NF54 (PfNF54) asexual intra-erythrocytic parasites. The experiment in a line: SYBR Green I proliferation assay, PfNF54 asexual blood stages. It is filed as cell-based, Plasmodium falciparum. The conditions noted are these: read-out: Pf NF54 ABS IC50. An excerpt: Figure 1 Activity profile of Aur class anticancer inhibitors across the life cycle of Plasmodium falciparum parasites. a) Activity (IC50) of inhibitors (grouped based on specificity against human Aur) against P.falciparum drug‐sensitive (PfNF54) asexual intra‐erythrocytic parasites as measured with SYBR Green I fluorescence as an indicator of viability and proliferation. […] ABS, asexual blood stages of the parasite; HsAur, human Aur.
P. falciparum drug sensitive NF54 (PfNF54) and drug-resistant Dd2 (PfDd2, chloroquine, pyrimethamine and mefloquine resistant) strains were cultured in vitro in human O^+/A^+ erythrocytes (5% hematocrit) in complete medium at 2–5% parasitemia, 37 °C, shaking at 60 rpm under hypoxic conditions (90% N2, 5% O2 and 5% CO2). […] Gametocytogenesis was followed with daily media changes (including glucose) and ABS parasites removed with 50 mM N-acetylglucosamine (day 1–4 for stage II/III; days 3–7 for stage IV/V).
All inhibitors were dissolved in dimethyl sulfoxide (DMSO). […] Ring-stage ABS parasites (1% parasitemia, 1% hematocrit) were treated with compounds for 96 h at 37 °C with chloroquine disulphate (0.5 μM) as positive drug control. […] Luciferase activity was determined using a non-lysing D-luciferin substrate (1 mM in 0.1 M citrate buffer, pH 5.5, 100 μL) and bioluminescence was detected with a GloMax® - Multi Detection System with Instinct® software.

Data set [2] deals with multidrug-resistant PfDd2 ABS parasites. As to the kind of experiment: SYBR Green I proliferation assay, PfDd2 asexual blood stages. It is filed as cell-based. As to conditions: Plasmodium falciparum, DD2, read-out: Pf Dd2 ABS IC50. Here is the method:
(§1) (B) Antiplasmodial activity of nine anticancer aurora kinase inhibitors (selected based on their PfNF54 ABS activity) against P. falciparum multidrug-resistant ABS parasites (PfDd2 and PfK1). (C) Kinobead competitive inhibition data.
(§2) P. falciparum drug sensitive NF54 (PfNF54) and drug-resistant Dd2 (PfDd2, chloroquine, pyrimethamine and mefloquine resistant) strains were cultured in vitro in human O^+/A^+ erythrocytes (5% hematocrit) in complete medium at 2–5% parasitemia, 37 °C, shaking at 60 rpm under hypoxic conditions (90% N2, 5% O2 and 5% CO2). Immature and mature gametocytes were produced from P. falciparum 3D7elo1-pfs16-CBG99 (kind gift from Pietro Alano, ISS, Italy) ^[1] as described^[2,3] by simultaneously applying nutrient starvation and decreasing hematocrit to induce >97% ring-stage ABS parasites (0.5% parasitemia, 6% hematocrit). Gametocytogenesis was followed with daily media changes (including glucose) and ABS parasites removed with 50 mM N-acetylglucosamine (day 1–4 for stage II/III; days 3–7 for stage IV/V).
(§3) All inhibitors were dissolved in dimethyl sulfoxide (DMSO). Antiplasmodium activity of selected anti-cancer inhibitors was determined on P. falciparum NF54 and Dd2 strains, measuring SYBR Green I fluorescence (485 nm excitation, 538 nm emission) as an indicator of proliferation^[4]. Ring-stage ABS parasites (1% parasitemia, 1% hematocrit) were treated with compounds for 96 h at 37 °C with chloroquine disulphate (0.5 μM) as positive drug control. The activity of the inhibitors was tested against immature (>95% stage II/III) and late-stage (>90% stage IV/V) gametocytes using a luciferase reporter assay on 3D7elo1-pfs16-CBG99 ^[1]. […] Luciferase activity was determined using a non-lysing D-luciferin substrate (1 mM in 0.1 M citrate buffer, pH 5.5, 100 μL) and bioluminescence was detected with a GloMax® - Multi Detection System with Instinct® software.

Data set [3] has as its system immature (stage II/III) gametocytes, P. falciparum 3D7elo1-pfs16-CBG99. As to the kind of experiment: Luciferase reporter assay, immature gametocytes. It is filed as cell-based, Plasmodium falciparum. As to conditions: 48 h; for inhibition at 5 µM: Plasmodium falciparum, read-out: Pf Early stage gametocyte %inhibition @ 5 µM. Here is the method:
as §2, §3
Background: Reporter assays use an easily measured gene product as a stand-in for the process of interest.

The subject of data set [4] is late-stage (stage IV/V) gametocytes, P. falciparum 3D7elo1-pfs16-CBG99. The experiment in a line: Luciferase reporter assay, late-stage gametocytes. The class given is cell-based. The conditions noted are these: Plasmodium falciparum, 48 h, read-out: Pf Late stage gametocyte %inhibition @ 5 µM. Here is the method:
as §2, §3

A short description of data set [5]: Cytotoxicity counter-screening (MTT), HepG2. The conditions noted are these: human, HepG2 cells, HepG2 CC50, 48 h, MTT. Here is the method: (§4) HepG2 and CHO cells were maintained at 37 °C, under a humidified atmosphere of 5% CO2, in DMEM high glucose media (Gibco) supplemented with 10% heat-inactivated FBS and 1% (v/v) Penicillin-Streptomycin antibiotics. […] The supernatant was discarded, and the cell pellet was resuspended in 1 mL DMEM media for cell counting by Trypan Blue. To determine the toxicity, cells were resuspended and seeded at a concentration of 1x10^4 cells/well in a 96-well plate and incubated for 24 h^[9,10]. Cells were treated in duplicate with a 10-fold serial dilution starting at 100 ug/mL of inhibitor in new media. After 48 h incubation, the viable cells were measured using the MTT tetrazolium reduction assay, where sterile 25 µL of a 5 mg/mL MTT was added to each well and incubated for 4 h before the […] formazan crystals were dissolved with 100 µL DMSO (Merck) per well. The absorbance, a measure of intracellular reduction of MTT, was measured at 540 nm (Multiskan GO). Emetine (50 µM) was included as a positive drug control, and the background was subtracted from all data before being normalised to the untreated^[9,10].
In general terms: A counterscreen serves to expose hits that act by an unwanted route or on another target.

Data set [6] deals with hepatocellular carcinoma (HepG2) cells. The experiment in a line: Cytotoxicity counter-screening (MTT), HepG2. The conditions noted are these: HepG2 CC50/PfNF54 IC50. Here is the method:
as §4

Data set [7] can be described thus: Cytotoxicity counter-screening (MTT), CHO. The conditions noted are these: Chinese hamster, CHO cells. Here is the method:
as §4

Data set [8] concerns Chinese Hamster Ovary (CHO) cells. As to the kind of experiment: Cytotoxicity counter-screening (MTT), CHO. As to conditions: CHO CC50/PfNF54 IC50. Here is the method: as §4
Data set [9] concerns HepG2 and CHO cell lines versus PfNF54. The experiment in a line: Selectivity of parasite versus mammalian cell lines. The class given is cell-based. The conditions noted are these: mammalian cell line (CHO/HepG2) CC50 versus PfNF54 IC50; cell line not specified.
Protocol: HepG2 and CHO cells were maintained at 37 °C, under a humidified atmosphere of 5% CO2, in DMEM high glucose media (Gibco) supplemented with 10% heat-inactivated FBS and 1% (v/v) Penicillin-Streptomycin antibiotics. […] The supernatant was discarded, and the cell pellet was resuspended in 1 mL DMEM media for cell counting by Trypan Blue. To determine the toxicity, cells were resuspended and seeded at a concentration of 1x10^4 cells/well in a 96-well plate and incubated for 24 h^[9,10]. Cells were treated in duplicate with a 10-fold serial dilution starting at 100 ug/mL of inhibitor in new media. After 48 h incubation, the viable cells were measured using the MTT tetrazolium reduction assay, where sterile 25 µL of a 5 mg/mL MTT was added to each well and incubated for 4 h before the water-soluble formazan crystals were dissolved with 100 µL DMSO (Merck) per well. The absorbance, a measure of intracellular reduction of MTT, was measured at 540 nm (Multiskan GO). Emetine (50 µM) was included as a positive drug control, and the background was subtracted from all data before being normalised to the untreated^[9,10].
For data set [10], the system named is P. berghei liver schizonts in HepG2-A16-CD81EGFP cells. As to the kind of experiment: P. berghei (PbLuc) liver stage assay. As to conditions: Plasmodium berghei; 48 h, PbLuc; read-out: Pb liver stage IC50. It is filed as cell-based.
Source text: as §1
Plasmodium berghei (Pb) sporozoites were obtained by dissecting the salivary glands of infected Anopheles stephensi mosquitoes. These were provided by The SporoCore, at the University of Georgia, GA, USA (SporoCore.uga.edu). The parasites utilised a GFP-Lucama1-eef1 reporter line^[5]. These engineered parasites, termed Pb-Luc, were used to infect HepG2-A16-CD81EGFP cells. HepG2-A16-CD81EGFP cells stably transformed to express a GFP-CD81 fusion protein^[6] were cultured at 37 °C in 5% CO2 in DMEM (Invitrogen, Carlsbad, USA) supplemented with 10% FBS (Corning, NY, USA), 1X Pen/Strep/Glu (Thermo Fisher Scientific, USA). Compounds were prepared as 10 mM solutions in DMSO, and 10 nL of each (resulting in a final DMSO concentration of 0.1% per well) was transferred into assay plates using an ECHO 650 (Beckman). Concentrations ranged from 10 µM to 0.5 nM. Atovaquone (0.1 µM) served as a positive control, while 0.1% DMSO was used as a negative control. Liver stage (PbLuc) screening has been previously described^[7]. Human hepatic cells (3 × 10^3; HepG2-A16-CD81-EGFP) suspended in 5 µL of DMEM medium ([…], supplemented with 5% FBS, 5× Pen/Strep/Glu) were seeded in 1536-well plates (Greiner BioOne) using the MultiFlo FX (Agilent) 20 h before infection. PbLuc sporozoites, isolated from the salivary glands of A. stephensi mosquitoes, were filtered twice through a 20 µm nylon pore cell strainer. The sporozoites were resuspended in screening media, counted with a hemocytometer, and diluted to a final concentration of 200 sporozoites per µL. Each well received 1,000 sporozoites in 5 µL, dispensed via the GNF Dispenser II (GNF Systems). […] Luminescence was measured immediately with the Pherastar FSX reader (BMG Labtech). Luminescence values were normalized using the positive and negative controls. EC50 values were calculated with CDD Vault (Burlingame, CA). […]

Setting [11] is: Plasmodium falciparum, NF54, 96 h, ring-stage ABS, 96 h, SYBR Green I.
The mark [12] stands for this setting: ring-stage ABS, 96 h, SYBR Green I.

For the molecule `CCn1cc(-c2ccnc3[nH]c(-c4cccc(CN(C)C)c4)cc23)c(-c2ccc(NC(=O)N(C)C)cc2)n1` [GSK-916, GSK-1070916], the IC50 came to 1180 nM in data set [1] (setting [11]) and 404 nM in data set [2]. Moreover, the “Pf Early stage gametocyte %inhibition @ 5 µM” value in data set [3] is on record as 67,1 ± 7,0%. For the same molecule, the inhibition at 5 µM in [3] was roughly 70%; in data set [4] it was 31.5%. Also, the CC50 at 48 h in data set [5] is 13.1 µM; in [7], 5.3 µM. The “Selectivity index (SI) HepG2” value in data set [6] worked out at 11.03. Further, in [8], the “Selectivity index (SI) CHO” value is listed as 4.47. Besides, the “selectivity index (SI) towards the parasite” value in data set [9] was less than 10.
For `O=C(O)[C@]1(Cc2cccc(Nc3nccs3)n2)CC[C@@H](Oc2cccc(Cl)c2F)CC1` [MK-5108], the half-maximal inhibitory concentration (IC50) in data set [1] (Plasmodium falciparum, NF54, 96 h) was no less than 5000 nM.
Turning to `COc1cc2ncnc(Nc3ccc(NC(=O)c4ccccc4)cc3)c2cc1OC` [Aki II, Aurora Kinase Inhibitor II], the IC50 in [1] (setting [12]) is 2150 nM.
As for `CO[C@@H](C(=O)N1Cc2n[nH]c(NC(=O)c3ccc(N4CCN(C)CC4)cc3)c2C1)c1ccccc1` [Danusertib], the IC50 in [1] (setting [11]) was 1410 nM; in data set [2], 1300 nM; in [10] it was 6.22 µM. The inhibition at 5 µM in data set [3] was determined as 9.5%; in data set [4], 2.6%. Moreover, the results for the CC50 at 48 h in [5] and in [7] were 35.1 µM and 33.2 µM, respectively. Besides, in data set [6], the “Selectivity index (SI) HepG2” value was 24.8. Moreover, the “Selectivity index (SI) CHO” value in data set [8] worked out at 23.50.
Take `Cc1nn(C)cc1-c1nc2c(N3CCN(Cc4ccc(Cl)cc4)CC3)c(Cl)cnc2[nH]1` [CCT-736, CCT-241736]: in data set [1] (setting [11]), the IC50 came to 3240 nM.
`O=C(Nc1cccc(Cl)c1)Nc1ncc(CCNc2ncnc3ccsc23)s1` [SNS-314, SNS-314 Mesylate]: in data set [1] (setting [11]), the IC50 stood at 1440 nM.
As to `Cc1nc(N)sc1-c1ccnc(Nc2ccc(N3CCOCC3)cc2)n1` [CYC-116], the IC50 in [1] (setting [11]) was determined as 3090 nM.
On to `O=C(O)c1ccc(Nc2ncc3c(n2)-c2ccc(Cl)cc2C(c2c(F)cccc2F)=NC3)cc1` [MLN8054], for which the IC50 in data set [1] (setting [11]) was no less than 5000 nM.
Take `CCc1cccc(CC)c1NC(=O)N1Cc2n[nH]c(NC(=O)c3ccc(N4CCN(C)CC4)cc3)c2C1` [PHA-32, PHA-680632]: the IC50 in [1] (setting [11]) came to 3130 nM.
For `Cc1cc(CN2CCN(c3c(Br)cnc4nc(-c5ccc(N6CCN(C)CC6)cc5)[nH]c34)CC2)no1` [CCT-690, CCT-137690], in [1] (setting [12]), the IC50 amounted to 1660 nM.
On to `Cc1csc(-c2nnc(Nc3ccc(Oc4ncccc4-c4ccnc(N)n4)cc3)c3ccccc23)c1` [AMG 900], for which the IC50 in data set [1] (setting [11]) was no less than 5000 nM.
As to `Cc1cc(Nc2nn(-c3ccccc3)c(=O)c3ccccc23)n[nH]1` [PH-p, Phthalazinone pyrazole], in data set [1] (setting [12]), the IC50 was 2720 nM.
Consider `COc1cc(Nc2ncc3c(n2)-c2ccc(Cl)cc2C(c2c(F)cccc2OC)=NC3)ccc1C(=O)O` [Alisertib, Alisertib (MLN8237)], for which the IC50 in data set [1] (setting [11]) was no less than 5000 nM.
For `CN(C)c1ccc(-c2nc3ncc(Cl)c(N4CCN(CC(=O)Nc5nccs5)CC4)c3[nH]2)cc1` [CCT-202, CCT-129202], the IC50 in data set [1] (setting [12]) turned out to be 2410 nM.
Regarding `Nc1nc(Nc2ccc(S(N)(=O)=O)cc2)nn1C(=O)c1c(F)cccc1F` [JNJ, JNJ-7706621], the IC50 in data set [1] (setting [11]) was found to be 3310 ± 813 nM.
Turning to `CC(=O)NCC(=O)N1[C@@H]2CC[C@H]1c1ccc(Nc3ncc(C(F)(F)F)c(NC4CCC4)n3)cc12` [PF-35, PF-03814735], the IC50 in data set [1] (setting [12]) turned out to be 2120 ± 1560 nM.
